Measurements taken from patent US20250179077A1, “QUINAZOLINE COMPOUNDS AND USES THEREOF AS INHIBITORS OF MUTANT KRAS PROTEINS” (AMGEN INC., priority 2022, published 2025).
Read-outs that look alike come from different tables or passages of the source.

Key:
[1] = target: GDP-bound KRAS protein (aa 1-169), containing both G12D and C118A amino acid substitutions (Homo sapiens, UniProt P01116, C118A/G12D); experiment: KRAS G12D Coupled Nucleotide Exchange Assay; type: biochemical
Procedure: KRAS G12D Coupled Nucleotide Exchange Assay
Following compound pre-incubation, purified SOS protein (aa 564-1049) and GTP (Roche 10106399001) were added to the assay wells and incubated for an additional 30 min. […] The assay plates were then read on a PerkinElmer EnVision Multilabel Reader, using AlphaScreen® technology, and data were analyzed using a 4-parameter logistic model to calculate IC50 values.

[2] = target: His-tagged KRAS G12D protein (Homo sapiens, UniProt P01116, G12D); experiment: KRAS G12D TR-FRET Assay; type: binding
His-tagged KRAS G12D protein, sequence (P01116 1-188 isoform P01116-2 G12D): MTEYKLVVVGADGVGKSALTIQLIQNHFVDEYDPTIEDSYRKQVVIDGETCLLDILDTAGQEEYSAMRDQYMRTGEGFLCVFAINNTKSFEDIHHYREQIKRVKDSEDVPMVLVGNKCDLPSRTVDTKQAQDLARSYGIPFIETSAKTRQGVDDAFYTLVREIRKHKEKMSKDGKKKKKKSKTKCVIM
Procedure: KRAS G12D TR-FRET Assay Compounds of interest were prepared in a dose-response titration in DMSO, and 80 nL were added via Labcyte Echo to each well of a 384-well plate (Perkin Elmer 6008280). The His-tagged KRAS G12D protein (Amgen) was diluted to 20 nM in Assay Buffer (20 mM HEPES, pH 7.4, 10 mM MgCl2, 50 mM NaCl, 0.1% BSA, 0.01% Tween-20, 10 μM GDP) and 2 uL was added to the appropriate wells of the 384-well plate. The plate was incubated for 30 minutes at room temperature. Biotinylated KRPep-2d substrate (Amgen) was diluted to 20 nM in Assay Buffer and 2 μL was added to all wells and incubated for 1 hour at room temperature. Detection Reagent (0.4 nM LANCE Eu-W1024 Anti-6×-His (Perkin Elmer AD0401), 5 nM streptavidin-d2 (Cisbio 610SADLA)) was prepared in Assay Buffer, then 4 μL was added to the plate and incubated for 1 hour at room temperature. Plates were read using PerkinElmer EnVision (ex: 320 nm, em1: 665 nm, em2: 615 nm) and em1/em2 data was used to generate curve fits using a 4-parameter logistic model to calculate IC50 values.

[3] = tested on: Phosphorylation of ERK1/2 in AsPC-1 cells; experiment: Phospho-ERK1/2 MSD Assay; type: cell-based
Procedure: AsPC-1 (ATCC® CRL-1682™) cells were cultured in RPMI 1640 Medium (ThermoFisher Scientific 11875093) containing 10% fetal bovine serum (ThermoFisher Scientific 16000044) and Ix penicillin-streptomycin-glutamine (ThermoFisher Scientific 10378016). Sixteen hours prior to compound treatment, AsPC-1 cells were seeded in 96-well cell culture plates at a density of 25,000 cells/well and incubated at 37° C., 5% CO2. A compound dose-response titration was diluted in growth media, added to appropriate wells of a cell culture plate, and then incubated at 37° C., 5% CO2 for 2 h. Following compound treatment, cells were washed with ice-cold Dulbecco's phosphate-buffered saline, no Ca^2+ or Mg^2+ (ThermoFisher Scientific 14190144), and then lysed in RIPA buffer (50 mM Tris-HCl pH 7.5, 1% Igepal, 0.5% sodium deoxycholate, 150 mM NaCl, and 0.5% sodium dodecyl sulfate) containing protease inhibitors (Roche 4693132001) and phosphatase inhibitors (Roche 4906837001). Phosphorylation of ERK1/2 in compound-treated lysates was assayed using Phospho-ERK1/2 Whole Cell Lysate kits (Meso Scale Discovery K151DWD) according to the manufacturer's protocol. Assay plates were read on a Meso Scale Discovery Sector Imager 6000, and data were analyzed using a 4-parameter logistic model to calculate IC50 values.

[4] = Homo sapiens, ASPC1, 2 h, read-out: 2 h p-ERK (AsPC-1 cells), IC50, AsPC-1 cells, 2 h compound treatment

GDP-bound KRAS protein (aa 1-169), containing both G12D and C118A amino acid substitutions, sequence (P01116 1-169 isoform P01116-2 G12D/C118A): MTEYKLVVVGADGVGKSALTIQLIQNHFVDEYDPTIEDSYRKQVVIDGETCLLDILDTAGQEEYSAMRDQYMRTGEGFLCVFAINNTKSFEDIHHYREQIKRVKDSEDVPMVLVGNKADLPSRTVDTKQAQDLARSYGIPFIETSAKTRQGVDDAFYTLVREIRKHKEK

IC50 [1] [nM] | IC50 [2] [nM] | IC50 [3, 4] [nM] | IC50 ([3]; read-out: 2 h p-ERK (AsPC-1 cells), IC50, AsPC-1 cells, 2 h compound treatment) [nM] | SMILES
8 | 9 | 123 | – | C[C@@H]1C[C@@H]1c1c(Cl)cc2[nH]ncc2c1-c1ccc2c(N3CCC[C@@](C)(O)C3)nc(OC[C@@]34CCCN3C[C@H](F)C4)nc2c1F (atropisomer, axis not shown; (aS)) [Example 110, (R)-1-((R)-7-(6-Chloro-5-((1S,2R)-2-methylcyclopropyl)-1H-indazol-4-yl)-8-fluoro-2-(((2R,7aS)-2-fluorotetrahydro-1H-pyrrolizin-7a(5H)-yl)methoxy)quinazolin-4-yl)-3-methylpiperidin-3-ol]
12 | 20 | 1080 | – | CCc1c(F)ccc2cc(O)cc(-c3c(F)cc4c(N5C[C@@H]6CO[C@@H](C6)C5)nc(OC[C@@]56CCCN5C[C@H](F)C6)nc4c3F)c12 (racemic) [Example 36, rac-4-(4-((1R,5S)-6-Oxa-3-azabicyclo[3.2.1]octan-3-yl)-6,8-difluoro-2-(((2R,7aS)-2-fluorotetrahydro-1H-pyrrolizin-7a(5H)-yl)methoxy)quinazolin-7-yl)-5-ethyl-6-fluoronaphthalen-2-ol]
40 | 40 | – | – | CCc1c(F)ccc2cc(O)cc(-c3c(F)cc4c(N5CCCC(O)(C(F)F)C5)nc(OC[C@@]56CCCN5C[C@H](F)C6)nc4c3F)c12 (single isomer, unassigned) [Example 21]
80 | 70 | – | – | CCc1c(F)ccc2cc(O)cc(-c3ccc4c(N5CCCC(O)(C(F)F)C5)nc(OC[C@@]56CCCN5C[C@H](F)C6)nc4c3F)c12 (single isomer, unassigned) [Example 24]
43 | 122 | – | – | CCc1c(F)ccc2cc(O)cc(-c3c(F)cc4c(N5CCOCC(C)(O)C5)nc(OC[C@@]56CCCN5C[C@H](F)C6)nc4c3F)c12 (single isomer, unassigned) [Example 35]
87 | 437 | – | – | CCc1c(F)ccc2cc(O)cc(-c3c(F)cc4c(N5CCCC6(CNC(=O)O6)C5)nc(OC[C@@]56CCCN5C[C@H](F)C6)nc4c3F)c12 (single isomer, unassigned) [Example 57]
272 | 729 | – | – | CCc1c(F)ccc2cc(N)cc(-c3c(F)cc4c(N5CCC[C@@](C)(O)C5)nc(OC[C@@]56CCCN5C[C@H](F)C6)nc4c3F)c12 (single isomer, unassigned) [Example 61]
138 | 223 | – | – | C#Cc1c(F)ccc2cc(N)cc(-c3c(F)cc4c(N5CCC[C@@](C)(O)C5)nc(OC[C@@]56CCCN5C[C@H](F)C6)nc4c3F)c12 (single isomer, unassigned) [Example 63]
– | – | 74 | – | C#Cc1c(F)ccc2cc(N)cc(-c3c(F)cc4c(N5CCC[C@@](C)(O)C5)nc(OC[C@@]56CCCN5C[C@H](F)C6)nc4c3F)c12 (single isomer, unassigned) [Example 64]
23 | 22 | – | – | Cc1cc2[nH]ncc2c(-c2c(F)cc3c(N4CCC[C@@](C)(O)C4)nc(OC[C@@]45CCCN4C[C@H](F)C5)nc3c2F)c1Cl [Example 48, (3R)-1-(7-(5-Chloro-6-methyl-1H-indazol-4-yl)-6,8-difluoro-2-(((2R,7a.S)-2-fluorotetrahydro-1H-pyrrolizin-7a(5H)-yl)methoxy)quinazolin-4-y1)-3-methylpiperidin-3-ol]
10 | 10 | – | – | Cc1c(Cl)cc2[nH]ncc2c1-c1c(F)cc2c(N3CCC[C@@](C)(O)C3)nc(OC[C@@]34CCCN3C[C@H](F)C4)nc2c1F [Example 49, (3R)-1-(7-(6-Chloro-5-methyl-1H-indazol-4-yl)-6,8-difluoro-2-(((2R,7aS)-2-fluorotetrahydro-1H-pyrrolizin-7a(5H)-yl)methoxy)quinazolin-4-yl)-3-methylpiperidin-3-ol]

The next lines start with the compound.

SMILES | IC50 [1] [nM] | IC50 [2] [nM] | IC50 [3, 4] [nM] | IC50 ([3]; read-out: 2 h p-ERK (AsPC-1 cells), IC50, AsPC-1 cells, 2 h compound treatment) [nM]
CCc1c(F)ccc2cc(O)cc(-c3c(F)cc4c(N5CCC[C@@](C)(O)C5)nc(OC[C@@]56CCCN5C[C@H](F)C6)nc4c3F)c12 (atropisomer, axis not shown) [Example 3, (3R)-1-(7-(8-Ethyl-7-fluoro-3-hydroxynaphthalen-1-yl)-6,8-difluoro-2-(((2R,7a.S)-2-fluorotetrahydro-1H-pyrrolizin-7a(5H)-yl)methoxy)quinazolin-4-yl)-3-methylpiperidin-3-ol] | 134 | 127 | – | –
Cc1cc2[nH]ncc2c(-c2ccc3c(N4CCC[C@](O)(CF)C4)nc(OC[C@@]45CCCN4C[C@H](F)C5)nc3c2F)c1[C@H]1C[C@H]1C (atropisomer, axis not shown; (aS)) [Example 118, (R)-1-((S)-8-Fluoro-2-(((2R,7aS)-2-fluorotetrahydro-1H-pyrrolizin-7a(5H)-yl)methoxy)-7-(6-methyl-5-((1S,2R)-2-methylcyclopropyl)-1H-indazol-4-yl)quinazolin-4-yl)-3-(fluoromethyl)piperidin-3-ol] | 4 | 5 | 126 | –
Cc1cc2[nH]ncc2c(-c2c(F)cc3c(N4CCC[C@@](C)(O)C4)nc(OC[C@@]45CCCN4C[C@H](F)C5)nc3c2F)c1[C@H]1C[C@H]1C (atropisomer, axis not shown; (aS)) [Example 121, (R)-1-((S)-6,8-Difluoro-2-(((2R,7aS)-2-fluorotetrahydro-1H-pyrrolizin-7a(5H)-yl)methoxy)-7-(6-methyl-5-((1S,2R)-2-methylcyclopropyl)-1H-indazol-4-yl)quinazolin-4-yl)-3-methylpiperidin-3-ol bis(2,2,2-trifluoroacetate)] | 6 | 9 | 156 | –
CCc1c(F)ccc2cc(O)cc(-c3c(F)cc4c(N5[C@H]6CCC(O)[C@@H]5CC6)nc(OC[C@@]56CCCN5C[C@H](F)C6)nc4c3F)c12 (mixture of isomers) [Example 55, rac-(1S,5R)-8-(7-(8-Ethyl-7-fluoro-3-hydroxynaphthalen-1-yl)-6,8-difluoro-2-(((2R,7aS)-2-fluorotetrahydro-1H-pyrrolizin-7a(5H)-yl)methoxy)quinazolin-4-yl)-8-azabicyclo[3.2.1]octan-2-ol] | 11 | 21 | 822 | –
C#Cc1cccc2cc(O)cc(-c3c(F)cc4c(N5CCC[C@@](C)(O)C5)nc(OC[C@@]56CCCN5C[C@H](F)C6)nc4c3F)c12 (single isomer, unassigned) [Example 11] | 186 | 212 | – | –
CCc1c(F)ccc2cc(O)cc(-c3c(F)cc4c(N5CCCC(O)(C(F)F)C5)nc(OC[C@@]56CCCN5C[C@H](F)C6)nc4c3F)c12 (single isomer, unassigned) [Example 22] | 58 | 96 | – | –
CCc1c(F)ccc2cc(O)cc(-c3c(O)cc4c(N5CCC[C@@](C)(O)C5)nc(OC[C@@]56CCCN5C[C@H](F)C6)nc4c3F)c12 (single isomer, unassigned) [Example 28] | 302 | 273 | – | –
CCc1c(F)ccc2cc(O)cc(-c3c(F)cc4c(N5CCCC6(CNC(=O)O6)C5)nc(OC[C@@]56CCCN5C[C@H](F)C6)nc4c3F)c12 (single isomer, unassigned) [Example 58] | – | 1 | – | 3
C#Cc1c(F)ccc2cccc(-c3c(F)cc4c(N5CCC[C@@](C)(O)C5)nc(OC[C@@]56CCCN5C[C@H](F)C6)nc4c3F)c12 (single isomer, unassigned) [Example 66] | 589 | 657 | – | –
CCc1c(F)ccc2cc(O)cc(-c3ccc4c(N5CCC(C(N)=O)C5)nc(OC[C@@]56CCCN5C[C@H](F)C6)nc4c3F)c12 (stereo partly drawn) [Example 8, 1-(7-(8-Ethyl-7-fluoro-3-hydroxynaphthalen-1-yl)-8-fluoro-2-(((2R,7aS)-2-fluorotetrahydro-1H-pyrrolizin-7a(5H)-yl)methoxy)quinaquinazolin-4-yl)pyrrolidine-3-carboxamide] | 11 | 22 | – | –
